Test results from PubChem BioAssay AID651573 (The Scripps Research Institute Molecular Screening Center, 2012).
Active and inactive are the calls of the source.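 The calls were made as follows: active = percent growth at or below 50%, meaning growth inhibited by at least half; inactive = percent growth above 50%.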

Columns and labels:
Experiment in all cases: cancer cell panel antiproliferative activity – NCI60 one-dose, 10 µM, STAT3 inhibitor project, profiling panel (AID 651573)
Melanoma UACC-257 = settings: SRB absorbance, 48 h, at 10 µM, stronger effect = lower value
Colon Cancer HCT-15 = settings: SRB absorbance, 48 h, at 10 µM, stronger effect = lower value
Renal Cancer RXF 393 = settings: SRB absorbance, 48 h, at 10 µM, stronger effect = lower value
[1] = test system: Non-Small Cell Lung Cancer NCI-H226; settings: SRB absorbance, 48 h, at 10 µM, stronger effect = lower value
CNS Cancer SF-268 = settings: SRB absorbance, 48 h, at 10 µM, stronger effect = lower value
Leukemia K-562 = settings: SRB absorbance, 48 h, at 10 µM, stronger effect = lower value
Melanoma LOX IMVI = settings: SRB absorbance, 48 h, at 10 µM, stronger effect = lower value
[2] = test system: Non-Small Cell Lung Cancer NCI-H522; settings: SRB absorbance, 48 h, at 10 µM, stronger effect = lower value
Renal Cancer 786-0 = settings: SRB absorbance, 48 h, at 10 µM, stronger effect = lower value
Melanoma SK-MEL-5 = settings: SRB absorbance, 48 h, at 10 µM, stronger effect = lower value
Leukemia MOLT-4 = settings: SRB absorbance, 48 h, at 10 µM, stronger effect = lower value
[3] = test system: Non-Small Cell Lung Cancer NCI-H460; settings: SRB absorbance, 48 h, at 10 µM, stronger effect = lower value
Melanoma UACC-62 = settings: SRB absorbance, 48 h, at 10 µM, stronger effect = lower value, 0 = no net growth, negative = cell kill
Breast Cancer MDA-MB-468 = settings: SRB absorbance, 48 h, at 10 µM, stronger effect = lower value
Ovarian Cancer SK-OV-3 = settings: SRB absorbance, 48 h, at 10 µM, stronger effect = lower value
Breast Cancer BT-549 = settings: SRB absorbance, 48 h, at 10 µM, stronger effect = lower value, 0 = no net growth, negative = cell kill
Melanoma SK-MEL-2 = settings: SRB absorbance, 48 h, at 10 µM, stronger effect = lower value
Prostate Cancer DU-145 = settings: SRB absorbance, 48 h, at 10 µM, stronger effect = lower value
CNS Cancer U251 = settings: SRB absorbance, 48 h, at 10 µM, stronger effect = lower value
[4] = test system: Non-Small Cell Lung Cancer HOP-62; settings: SRB absorbance, 48 h, at 10 µM, stronger effect = lower value, 0 = no net growth, negative = cell kill
Melanoma MDA-MB-435 = settings: SRB absorbance, 48 h, at 10 µM, stronger effect = lower value
Renal Cancer TK-10 = settings: SRB absorbance, 48 h, at 10 µM, stronger effect = lower value
Melanoma M14 = settings: SRB absorbance, 48 h, at 10 µM, stronger effect = lower value
[5] = test system: Non-Small Cell Lung Cancer EKVX; settings: SRB absorbance, 48 h, at 10 µM, stronger effect = lower value
Colon Cancer SW-620 = settings: SRB absorbance, 48 h, at 10 µM, stronger effect = lower value, 0 = no net growth, negative = cell kill
CNS Cancer SNB-75 = settings: SRB absorbance, 48 h, at 10 µM, stronger effect = lower value
Ovarian Cancer OVCAR-3 = settings: SRB absorbance, 48 h, at 10 µM, stronger effect = lower value
Renal Cancer CAKI-1 = settings: SRB absorbance, 48 h, at 10 µM, stronger effect = lower value
[6] = test system: Non-Small Cell Lung Cancer HOP-92; settings: SRB absorbance, 48 h, at 10 µM, stronger effect = lower value, 0 = no net growth, negative = cell kill
Renal Cancer A498 = settings: SRB absorbance, 48 h, at 10 µM, stronger effect = lower value
Renal Cancer SN12C = settings: SRB absorbance, 48 h, at 10 µM, stronger effect = lower value
Breast Cancer HS 578T = settings: SRB absorbance, 48 h, at 10 µM, stronger effect = lower value
Breast Cancer MCF7 = settings: SRB absorbance, 48 h, at 10 µM, stronger effect = lower value
[7] = test system: Non-Small Cell Lung Cancer A549/ATCC; settings: SRB absorbance, 48 h, at 10 µM, stronger effect = lower value
Leukemia SR = settings: SRB absorbance, 48 h, at 10 µM, stronger effect = lower value
Leukemia RPMI-8226 = settings: SRB absorbance, 48 h, at 10 µM, stronger effect = lower value
CNS Cancer SF-295 = settings: SRB absorbance, 48 h, at 10 µM, stronger effect = lower value
CNS Cancer SNB-19 = settings: SRB absorbance, 48 h, at 10 µM, stronger effect = lower value
[8] = test system: Non-Small Cell Lung Cancer NCI-H23; settings: SRB absorbance, 48 h, at 10 µM, stronger effect = lower value
Melanoma SK-MEL-28 = settings: SRB absorbance, 48 h, at 10 µM, stronger effect = lower value
Prostate Cancer PC-3 = settings: SRB absorbance, 48 h, at 10 µM, stronger effect = lower value
[9] = test system: Breast Cancer MDA-MB-231/ATCC; settings: SRB absorbance, 48 h, at 10 µM, stronger effect = lower value
Colon Cancer HCC-2998 = settings: SRB absorbance, 48 h, at 10 µM, stronger effect = lower value
Colon Cancer KM12 = settings: SRB absorbance, 48 h, at 10 µM, stronger effect = lower value
Ovarian Cancer OVCAR-8 = settings: SRB absorbance, 48 h, at 10 µM, stronger effect = lower value
Colon Cancer HCT-116 = settings: SRB absorbance, 48 h, at 10 µM, stronger effect = lower value
Colon Cancer COLO 205 = settings: SRB absorbance, 48 h, at 10 µM, stronger effect = lower value, 0 = no net growth, negative = cell kill
Leukemia CCRF-CEM = settings: SRB absorbance, 48 h, at 10 µM, stronger effect = lower value
[10] = test system: Ovarian Cancer NCI/ADR-RES; settings: SRB absorbance, 48 h, at 10 µM, stronger effect = lower value
[11] = test system: Non-Small Cell Lung Cancer NCI-H322M; settings: SRB absorbance, 48 h, at 10 µM, stronger effect = lower value
Melanoma MALME-3M = settings: SRB absorbance, 48 h, at 10 µM, stronger effect = lower value
Ovarian Cancer OVCAR-4 = settings: SRB absorbance, 48 h, at 10 µM, stronger effect = lower value

COc1ccc(C(=O)C2CCN(c3ncnc4sccc34)CC2)cc1
percent growth (Melanoma UACC-257): 63.7% (inactive) | percent growth (Colon Cancer HCT-15): 72.4% (inactive) | percent growth (Renal Cancer RXF 393): 102% (inactive) | percent growth [1]: 88.8% (inactive) | percent growth (CNS Cancer SF-268): 85.4% (inactive) | percent growth (Leukemia K-562): 41.4% | percent growth (Melanoma LOX IMVI): 40.1% | percent growth [2]: 49.2% | percent growth (Renal Cancer 786-0): 72.4% (inactive) | percent growth (Melanoma SK-MEL-5): 26.5% | percent growth (Leukemia MOLT-4): 57.7% (inactive) | percent growth [3]: 71% (inactive) | percent growth (Melanoma UACC-62): 52.7% (inactive) | percent growth (Breast Cancer MDA-MB-468): 18.9% | percent growth (Ovarian Cancer SK-OV-3): 89.9% (inactive) | percent growth (Breast Cancer BT-549): 53.4% (inactive) | percent growth (Melanoma SK-MEL-2): 76% (inactive) | percent growth (Prostate Cancer DU-145): 98.8% (inactive) | percent growth (CNS Cancer U251): 77.5% (inactive) | percent growth [4]: 91.9% (inactive) | percent growth (Melanoma MDA-MB-435): 66.6% (inactive) | percent growth (Renal Cancer TK-10): 73.3% (inactive) | percent growth (Melanoma M14): 78.5% (inactive) | percent growth [5]: 34.9% | percent growth (Colon Cancer SW-620): 90.8% (inactive) | percent growth (CNS Cancer SNB-75): 104% (inactive) | percent growth (Ovarian Cancer OVCAR-3): 97.1% (inactive) | percent growth (Renal Cancer CAKI-1): 66.4% (inactive) | percent growth [6]: 61.7% (inactive) | percent growth (Renal Cancer A498): 91.7% (inactive) | percent growth (Renal Cancer SN12C): 71.2% (inactive) | percent growth (Breast Cancer HS 578T): 93.6% (inactive) | percent growth (Breast Cancer MCF7): 55.4% (inactive) | percent growth [7]: 74.5% (inactive) | percent growth (Leukemia SR): 47.9% | percent growth (Leukemia RPMI-8226): 27.7% | percent growth (CNS Cancer SF-295): 57.1% (inactive) | percent growth (CNS Cancer SNB-19): 64.8% (inactive) | percent growth [8]: 53.4% (inactive) | percent growth (Melanoma SK-MEL-28): 105% (inactive) | percent growth (Prostate Cancer PC-3): 76.9% (inactive) | percent growth [9]: 77.8% (inactive) | percent growth (Colon Cancer HCC-2998): 82.3% (inactive) | percent growth (Colon Cancer KM12): 87.9% (inactive) | percent growth (Ovarian Cancer OVCAR-8): 64% (inactive) | percent growth (Colon Cancer HCT-116): 34.4% | percent growth (Colon Cancer COLO 205): 88.2% (inactive) | percent growth (Leukemia CCRF-CEM): 42.3% | percent growth [10]: 43.5%

COc1ccc(CC2CCN(c3ncnc4sccc34)CC2)cc1
percent growth (Melanoma UACC-257): 67.2% (inactive) | percent growth (Colon Cancer HCT-15): 73.7% (inactive) | percent growth (Renal Cancer RXF 393): 108% (inactive) | percent growth [1]: 82% (inactive) | percent growth (CNS Cancer SF-268): 93.2% (inactive) | percent growth (Leukemia K-562): 41.1% | percent growth (Melanoma LOX IMVI): 34.4% | percent growth [2]: 48.5% | percent growth (Renal Cancer 786-0): 65.6% (inactive) | percent growth (Melanoma SK-MEL-5): 31.8% | percent growth (Leukemia MOLT-4): 66% (inactive) | percent growth [3]: 62.4% (inactive) | percent growth (Melanoma UACC-62): 54.8% (inactive) | percent growth (Breast Cancer MDA-MB-468): 21.3% | percent growth (Ovarian Cancer SK-OV-3): 87.5% (inactive) | percent growth (Breast Cancer BT-549): 56% (inactive) | percent growth (Melanoma SK-MEL-2): 71.3% (inactive) | percent growth (Prostate Cancer DU-145): 99.4% (inactive) | percent growth (CNS Cancer U251): 73.2% (inactive) | percent growth [4]: 93.6% (inactive) | percent growth (Melanoma MDA-MB-435): 66.9% (inactive) | percent growth (Renal Cancer TK-10): 80.4% (inactive) | percent growth (Melanoma M14): 87.5% (inactive) | percent growth [5]: 39.9% | percent growth [11]: 66.6% (inactive) | percent growth (Colon Cancer SW-620): 86.9% (inactive) | percent growth (CNS Cancer SNB-75): 100% (inactive) | percent growth (Ovarian Cancer OVCAR-3): 94.1% (inactive) | percent growth (Renal Cancer CAKI-1): 66.3% (inactive) | percent growth [6]: 75.4% (inactive) | percent growth (Renal Cancer A498): 96.1% (inactive) | percent growth (Renal Cancer SN12C): 72.9% (inactive) | percent growth (Breast Cancer HS 578T): 90.1% (inactive) | percent growth (Melanoma MALME-3M): 127% (inactive) | percent growth (Breast Cancer MCF7): 55.5% (inactive) | percent growth [7]: 64.2% (inactive) | percent growth (Leukemia SR): 72.5% (inactive) | percent growth (Leukemia RPMI-8226): 25.4% | percent growth (CNS Cancer SF-295): 59% (inactive) | percent growth (CNS Cancer SNB-19): 69.3% (inactive) | percent growth [8]: 46.8% | percent growth (Melanoma SK-MEL-28): 108% (inactive) | percent growth (Ovarian Cancer OVCAR-4): 50.7% (inactive) | percent growth (Prostate Cancer PC-3): 81.5% (inactive) | percent growth [9]: 79.8% (inactive) | percent growth (Colon Cancer HCC-2998): 88.5% (inactive) | percent growth (Colon Cancer KM12): 91.7% (inactive) | percent growth (Ovarian Cancer OVCAR-8): 65.4% (inactive) | percent growth (Colon Cancer HCT-116): 34.9% | percent growth (Colon Cancer COLO 205): 95% (inactive) | percent growth (Leukemia CCRF-CEM): 51% (inactive) | percent growth [10]: 43.4%
